Test results taken from US20160251332A1, “Herbicidal Compounds” (SYNGENTA PARTICIPATIONS AG, priority 2013, published 2016).

How the values were obtained:
Type in all cases: in vivo
Amaranthus retroflexus [1] = experiment: Pre-emergence herbicidal activity, AMARE; conditions: Application pre-emergence, 1000 g/Ha, evaluated after 13 days, scale 0-5
Method: (§1) Seeds of a variety of test species were sown in standard soil in pots. After cultivation for one day (pre-emergence) under controlled conditions in a glasshouse (at 24/16° C., day/night; 14 hours light; 65% humidity), the plants were sprayed with an aqueous spray solution derived from the formulation of the technical active ingredient in acetone/water (50:50) solution containing 0.5% Tween 20 (polyoxyethelyene sorbitan monolaurate, CAS RN 9005-64-5). The test plants were then grown in a glasshouse under controlled conditions (at 24/16° C., day/night; 14 hours light; 65% humidity) and watered twice daily. After 13 days, the test was evaluated (5=total damage to plant; 0=no damage to plant).

Echinochloa crus-galli [2] = experiment: Pre-emergence herbicidal activity, ECHCG; conditions: Application pre-emergence, 1000 g/Ha, evaluated after 13 days, scale 0-5
Method: as §1

Abutilon theophrasti [3] = experiment: Pre-emergence herbicidal activity, ABUTH; conditions: Application pre-emergence, 1000 g/Ha, evaluated after 13 days, scale 0-5
Method: as §1

Setaria faberi [4] = experiment: Pre-emergence herbicidal activity, SETFA; conditions: Application pre-emergence, 1000 g/Ha, evaluated after 13 days, scale 0-5
Method: as §1

Zea mays [5] = experiment: Pre-emergence herbicidal activity, ZEAMX; conditions: Application pre-emergence, 1000 g/Ha, evaluated after 13 days, scale 0-5
Method: as §1

Amaranthus retroflexus [6] = experiment: Post-emergence herbicidal activity, AMARE; conditions: Application post-emergence, 1000 g/Ha, evaluated after 13 days, scale 0-5
Method: (§2) Seeds of a variety of test species were sown in standard soil in pots. After 8 days cultivation (post-emergence) under controlled conditions in a glasshouse (at 24/16° C., day/night; 14 hours light; 65% humidity), the plants were sprayed with an aqueous spray solution derived from the formulation of the technical active ingredient in acetone/water (50:50) solution containing 0.5% Tween 20 (polyoxyethelyene sorbitan monolaurate, CAS RN 9005-64-5). The test plants were then grown in a glasshouse under controlled conditions (at 24/16° C., day/night; 14 hours light; 65% humidity) and watered twice daily. After 13 days, the test was evaluated (5=total damage to plant; 0=no damage to plant).

Abutilon theophrasti [7] = experiment: Post-emergence herbicidal activity, ABUTH; conditions: Application post-emergence, 1000 g/Ha, evaluated after 13 days, scale 0-5
Method: as §2

Setaria faberi [8] = experiment: Post-emergence herbicidal activity, SETFA; conditions: Application post-emergence, 1000 g/Ha, evaluated after 13 days, scale 0-5
Method: as §2

Echinochloa crus-galli [9] = experiment: Post-emergence herbicidal activity, ECHCG; conditions: Application post-emergence, 1000 g/Ha, evaluated after 13 days, scale 0-5
Method: as §2

Zea mays [10] = experiment: Post-emergence herbicidal activity, ZEAMX; conditions: Application post-emergence, 1000 g/Ha, evaluated after 13 days, scale 0-5
Method: as §2

Molecule `CCOC(=O)c1cncc(-c2cnc(N3C(=O)N(C)CC3O)cc2C(F)(F)F)c1` (stereo not drawn) [Compound A34] has an AMARE damage score (Amaranthus retroflexus [1]) of 5, an ECHCG damage score (Echinochloa crus-galli [2]) of 4 and an ABUTH damage score (Abutilon theophrasti [3]) of 5. It also gave an SETFA damage score (Setaria faberi [4]) of 3, a ZEAMX damage score (Zea mays [5]) of 1 and an AMARE damage score (Amaranthus retroflexus [6]) of 5. The ABUTH damage score (Abutilon theophrasti [7]) was 5, the SETFA damage score (Setaria faberi [8]) was 5 and the ECHCG damage score (Echinochloa crus-galli [9]) was 5. It also gave a ZEAMX damage score (Zea mays [10]) of 3.

`CC(=O)Nc1ccccc1-c1cnc(N2C(=O)N(C)CC2O)cc1C(F)(F)F` (stereo not drawn) [Compound A35] gave an AMARE damage score (Amaranthus retroflexus [1]) of 5, an ECHCG damage score (Echinochloa crus-galli [2]) of 2 and an ABUTH damage score (Abutilon theophrasti [3]) of 2. It also gave an SETFA damage score (Setaria faberi [4]) of 2, a ZEAMX damage score (Zea mays [5]) of 1 and an AMARE damage score (Amaranthus retroflexus [6]) of 5. The ABUTH damage score (Abutilon theophrasti [7]) was 5, the SETFA damage score (Setaria faberi [8]) was 4 and the ECHCG damage score (Echinochloa crus-galli [9]) was 4. The ZEAMX damage score (Zea mays [10]) was 1.

`C=Cc1cnc(N2C(=O)N(C)CC2O)cc1C(F)(F)F` (stereo not drawn) [Compound A41] was tested, and the AMARE damage score (Amaranthus retroflexus [1]) was 5, the ECHCG damage score (Echinochloa crus-galli [2]) was 4 and the ABUTH damage score (Abutilon theophrasti [3]) was 4. For the same molecule, the SETFA damage score (Setaria faberi [4]) was 4, the ZEAMX damage score (Zea mays [5]) was 2 and the AMARE damage score (Amaranthus retroflexus [6]) was 5. It also gave an ABUTH damage score (Abutilon theophrasti [7]) of 5, an SETFA damage score (Setaria faberi [8]) of 5 and an ECHCG damage score (Echinochloa crus-galli [9]) of 5. The ZEAMX damage score (Zea mays [10]) was 2.

With `CN1CC(O)N(c2cc(C(F)(F)F)c(NC(=O)C(C)(C)C)cn2)C1=O` (stereo not drawn) [Compound A42] the AMARE damage score (Amaranthus retroflexus [1]) was 5, the ECHCG damage score (Echinochloa crus-galli [2]) was 5 and the ABUTH damage score (Abutilon theophrasti [3]) was 5. The SETFA damage score (Setaria faberi [4]) was 5, the ZEAMX damage score (Zea mays [5]) was 3 and the AMARE damage score (Amaranthus retroflexus [6]) was 5. It also gave an ABUTH damage score (Abutilon theophrasti [7]) of 5, an SETFA damage score (Setaria faberi [8]) of 5 and an ECHCG damage score (Echinochloa crus-galli [9]) of 5. For the same molecule, the ZEAMX damage score (Zea mays [10]) was 5.

`CN1CC(O)N(c2cc(C(F)(F)F)c(C(=O)NC(C)(C)C)cn2)C1=O` (stereo not drawn) [Compound A43] was tested, and the AMARE damage score (Amaranthus retroflexus [1]) was 5, the ECHCG damage score (Echinochloa crus-galli [2]) was 5 and the ABUTH damage score (Abutilon theophrasti [3]) was 5. The SETFA damage score (Setaria faberi [4]) was 5, the ZEAMX damage score (Zea mays [5]) was 2 and the AMARE damage score (Amaranthus retroflexus [6]) was 5. For the same molecule, the ABUTH damage score (Abutilon theophrasti [7]) was 5, the SETFA damage score (Setaria faberi [8]) was 5 and the ECHCG damage score (Echinochloa crus-galli [9]) was 5. It also gave a ZEAMX damage score (Zea mays [10]) of 5.

Work on `CN1CC(O)N(c2cc(C(F)F)ccn2)C1=O` (stereo not drawn) [Compound A44] yielded an AMARE damage score (Amaranthus retroflexus [1]) of 5, an ECHCG damage score (Echinochloa crus-galli [2]) of 4 and an ABUTH damage score (Abutilon theophrasti [3]) of 5. It also gave an SETFA damage score (Setaria faberi [4]) of 5, a ZEAMX damage score (Zea mays [5]) of 2 and an AMARE damage score (Amaranthus retroflexus [6]) of 5. For the same molecule, the ABUTH damage score (Abutilon theophrasti [7]) was 5, the SETFA damage score (Setaria faberi [8]) was 5 and the ECHCG damage score (Echinochloa crus-galli [9]) was 5. The ZEAMX damage score (Zea mays [10]) was 4.

For `CN1CC(O)N(c2cc(Cl)c(C(=O)NC(C)(C)C)cn2)C1=O` (stereo not drawn) [Compound A45], the AMARE damage score (Amaranthus retroflexus [1]) was 5, the ECHCG damage score (Echinochloa crus-galli [2]) was 5 and the ABUTH damage score (Abutilon theophrasti [3]) was 5. The SETFA damage score (Setaria faberi [4]) was 5, the ZEAMX damage score (Zea mays [5]) was 3 and the AMARE damage score (Amaranthus retroflexus [6]) was 5. The ABUTH damage score (Abutilon theophrasti [7]) was 5, the SETFA damage score (Setaria faberi [8]) was 5 and the ECHCG damage score (Echinochloa crus-galli [9]) was 5. For the same molecule, the ZEAMX damage score (Zea mays [10]) was 5.

Work on `CN1CC(O)N(c2cc(C(F)(F)Cl)ccn2)C1=O` (stereo not drawn) [Compound A46] yielded an AMARE damage score (Amaranthus retroflexus [1]) of 5, an ECHCG damage score (Echinochloa crus-galli [2]) of 4 and an ABUTH damage score (Abutilon theophrasti [3]) of 5. For the same molecule, the SETFA damage score (Setaria faberi [4]) was 5, the ZEAMX damage score (Zea mays [5]) was 2 and the ECHCG damage score (Echinochloa crus-galli [9]) was 5.

`CN1CC(O)N(c2cc(C(F)F)c(Cl)cn2)C1=O` (stereo not drawn) [Compound A47] was tested, and the AMARE damage score (Amaranthus retroflexus [1]) was 4, the ECHCG damage score (Echinochloa crus-galli [2]) was 4 and the ABUTH damage score (Abutilon theophrasti [3]) was 4. It also gave an SETFA damage score (Setaria faberi [4]) of 4, a ZEAMX damage score (Zea mays [5]) of 0 and an ECHCG damage score (Echinochloa crus-galli [9]) of 4.

Molecule `CN1CC(O)N(c2cc(C(F)(F)C(F)(F)F)ccn2)C1=O` (stereo not drawn) [Compound A48] has an AMARE damage score (Amaranthus retroflexus [1]) of 5, an ECHCG damage score (Echinochloa crus-galli [2]) of 4 and an ABUTH damage score (Abutilon theophrasti [3]) of 5. It also gave an SETFA damage score (Setaria faberi [4]) of 5, a ZEAMX damage score (Zea mays [5]) of 2 and an AMARE damage score (Amaranthus retroflexus [6]) of 5. The ABUTH damage score (Abutilon theophrasti [7]) was 5, the SETFA damage score (Setaria faberi [8]) was 5 and the ECHCG damage score (Echinochloa crus-galli [9]) was 5. The ZEAMX damage score (Zea mays [10]) was 3.

`COC(C)(C)c1ccnc(N2C(=O)N(C)CC2O)c1` (stereo not drawn) [Compound A49] gave an AMARE damage score (Amaranthus retroflexus [1]) of 5, an ECHCG damage score (Echinochloa crus-galli [2]) of 5 and an ABUTH damage score (Abutilon theophrasti [3]) of 5. The SETFA damage score (Setaria faberi [4]) was 5, the ZEAMX damage score (Zea mays [5]) was 2 and the AMARE damage score (Amaranthus retroflexus [6]) was 5. For the same molecule, the ABUTH damage score (Abutilon theophrasti [7]) was 5, the SETFA damage score (Setaria faberi [8]) was 5 and the ECHCG damage score (Echinochloa crus-galli [9]) was 5. The ZEAMX damage score (Zea mays [10]) was 3.
